Assay results as given in US20240293323A1, “PHARMACEUTICAL COMPOSITIONS OF AN EPIDERMAL GROWTH FACTOR RECEPTOR INHIBITOR” (Blueprint Mdeicines Coroporation, priority 2021, published 2024).

Assay: Aqueous solubility
Assay type: physicochemical

aqueous solubility: low aqueous solubility
Structure (SMILES): CO[C@@H]1CCN(c2nccc(Nc3cc4c(C(C)C)ccc(N5C[C@H](CS(C)(=O)=O)[C@H]5C)c4cn3)n2)C[C@@H]1F [Compound (I), N-(2-((3S,4R)-3-fluoro-4-methoxypiperidin-1-yl)pyrimidin-4-yl)-5-isopropyl-8-((2R,3S)-2-methyl-3-((methylsulfonyl)methyl)azetidin-1-yl)isoquinolin-3-amine]
